Experimental data reported in patent US9006139B2, “Active compound combinations” (Bayer Intellectual Property GmbH, priority 2009, dated 2015).
Like-named read-outs stand apart in the source and are kept apart here.

Experiments:
Type in all cases: in vivo
[1] = tested on: Plasmopara viticola; test: Plasmopara test (grapevines)/protective; settings: Table B; 50 ppm a.i.
Protocol: (§1) Solvent: 24.5 parts by weight of acetone
(§2) • 24.5 parts by weight of dimethylacetamide Emulsifier: 1 part by weight of alkylaryl polyglycol ether
(§3) To produce a suitable preparation of active compound, 1 part by weight of active compound is mixed with the stated amounts of solvent and emulsifier, and the concentrate is diluted with water to the desired concentration. To test for protective activity, young plants are sprayed with the preparation of active compound at the stated rate of application. After the spray coating has dried on, the plants are inoculated with an aqueous spore suspension of Plasmopara viticola and then remain for 1 day in an incubation cabinet at approximately 20° C. and a relative atmospheric humidity of 100%. The plant is subsequently placed for 4 days in a greenhouse at approximately 21° C. and a relative atmospheric humidity of approximately 90%. The plants are then misted and placed for 1 day in an incubation cabinet. The test is evaluated 6 days after the inoculation. 0% means an efficacy which corresponds to that of the control, while an efficacy of 100% means that no disease is observed.

[2] = tested on: Sphaerotheca fuliginea; test: Sphaerotheca test (cucumbers)/protective; settings: Podosphaera fuliginea, 168 h, Table C, read-out: Efficacy in % found; for pest or weed control at 50 ppm: 50 ppm a.i.; for pest or weed control at 200 ppm: 200 ppm a.i.; for pest or weed control at 100 ppm: 100 ppm a.i.
In short: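 Young cucumber plants sprayed protectively with compound in acetone/dimethylacetamide with emulsifier, water-diluted, at the stated rate. After drying, plants inoculated with Sphaerotheca fuliginea spores and kept at ~23° C and ~70% RH. Efficacy scored at 7 days: 0% = untreated control, 100% = no disease.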

[3] = tested on: Alternaria solani; test: Alternaria test (tomatoes)/protective; settings: Alternaria solani, 72 h, Table E, read-out: Efficacy in % found; for pest or weed control at 50 ppm: 50 ppm a.i.
In short: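 Protective test: young tomato plants were sprayed with compound in an acetone/dimethylacetamide emulsifier formulation diluted with water. After drying, plants were inoculated with Alternaria solani spores and kept at ~20 °C and 100% relative humidity. Scored 3 days post-inoculation as % efficacy, where 0% equals untreated control and 100% means no disease.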

[4] = tested on: Phytophthora infestans; test: whole plant or invertebrate; settings: Phytophthora infestans, 72 h; for pest or weed control at 12.5 ppm: 12.5 ppm a.i.; for pest or weed control at 50 ppm: 50 ppm a.i.; for pest or weed control at 10 ppm: 10 ppm a.i.; for pest or weed control at 20 ppm: 20 ppm a.i.
[5] = tested on: Blumeria graminis fsp. tritici; test: Blumeria test (wheat)/preventive; settings: Table G; 500 ppm a.i.
Protocol: (§4) Solvent: 49 parts by weight of n,n-dimethylacetamid
(§5) Emulsifier: 1 part by weight of alkylaryl polyglycol ether
To produce a suitable preparation of active compound, 1 part by weight of active compound or active compound combination is mixed with the stated amounts of solvent and emulsifier, and the concentrate is diluted with water to the desired concentration. To test for preventive activity, young plants are sprayed with the preparation of active compound or active compound combination at the stated rate of application. After the spray coating has been dried, the plants are dusted with spores of Blumeria graminis fsp. tritici. The plants are placed in the greenhouse at a temperature of approximately 18° C. and a relative atmospheric humidity of approximately 80% to promote the development of mildew pustules. The test is evaluated 7 days after the inoculation. 0% means an efficacy which corresponds to that of the untreated control, while an efficacy of 100% means that no disease is observed.

[6] = tested on: Septoria tritici; test: Septoria tritici-test (wheat)/preventive; settings: Table H
Protocol: as §4, §5
To produce a suitable preparation of active compound, 1 part by weight of active compound or active compound combination is mixed with the stated amounts of solvent and emulsifier, and the concentrate is diluted with water to the desired concentration. To test for preventive activity, young plants are sprayed with the preparation of active compound or active compound combination at the stated rate of application. After the spray coating has been dried, the plants are sprayed with a spore suspension of Septoria tritici. The plants remain for 48 hours in an incubation cabinet at approximately 20° C. and a relative atmospheric humidity of approximately 100% and afterwards for 60 hours at approximately 15° C. in a translucent incubation cabinet at a relative atmospheric humidity of approximately 100%. The plants are placed in the greenhouse at a temperature of approximately 15° C. and a relative atmospheric humidity of approximately 80%. The test is evaluated 21 days after the inoculation. 0% means an efficacy which corresponds to that of the untreated control, while an efficacy of 100% means that no disease is observed.

[7] = tested on: Venturia inaequalis; test: Venturia test (apples)/protective; settings: Table D
Protocol: as §1, §2
as §3, with “conidia” for “spore”, “the causal agent of apple scab (Venturia inaequalis)” for “Plasmopara viticola”, “plants are then” for “plant is subsequently”, “placed” for “placed for 4 days”, “The” for “The plants are then misted and placed for 1 day in an incubation cabinet. The”, “10” for “6”

[8] = tested on: Fusarium graminearum; settings: Table L; 500 ppm a.i.
[9] = read-out: Efficacy in % found, Table A, test 1
[10] = read-out: Efficacy in % found, Table A, test 5
[11] = read-out: Efficacy in % found, Table A, test 6

With `Cn1c(=O)c2sc3c(=O)n(C)c(=O)c3sc2c1=O` [(I-1), 2,6-dimethyl-1H,5H-[1,4]dithiino[2,3-c:5,6-c′]dipyrrole-1,3,5,7(2H,6H)-tetrone] the “Efficacy in % found” value [1] was 54%, the pest or weed control at 50 ppm ([2]; test 1) was 0% and the pest or weed control at 200 ppm ([2]; test 1) was 30%. It also gave a pest or weed control at 50 ppm ([2]; test 2) of 38%, a pest or weed control at 200 ppm ([2]; test 2) of 65% and a pest or weed control at 50 ppm ([2]; test 3) of 20%. The pest or weed control at 100 ppm ([2]; test 3) was 30%, the pest or weed control at 100 ppm ([2]; test 4) was 19% and the pest or weed control at 12.5 ppm ([3]; test 1, 12.5 ppm a.i.) was 0%. For the same compound, the pest or weed control at 50 ppm ([3]; test 1) was 45%, the pest or weed control at 50 ppm ([3]; test 2) was 50% and the pest or weed control at 12.5 ppm [4, 9] was 0%. For the same compound, the pest or weed control at 25 ppm ([4]; read-out: Efficacy in % found, Table A, test 1, 25 ppm a.i.) was 5%, the pest or weed control at 50 ppm [4, 9] was 18% and the pest or weed control at 12.5 ppm ([4]; read-out: Efficacy in % found, Table A, test 2) was 35%. It also gave a pest or weed control at 50 ppm ([4]; read-out: Efficacy in % found, Table A, test 3) of 36%, a pest or weed control at 50 ppm ([4]; read-out: Efficacy in % found, Table A, test 4) of 47% and a pest or weed control at 10 ppm [4, 10] of 0%. It also gave a pest or weed control at 20 ppm [4, 10] of 0%, a pest or weed control at 10 ppm [4, 11] of 0% and a pest or weed control at 20 ppm [4, 11] of 9%. For the same compound, the pest or weed control at 40 ppm ([4]; read-out: Efficacy in % found, Table A, test 6, 40 ppm a.i.) was 11%, the pest or weed control at 12.5 ppm ([4]; read-out: Efficacy in % found, Table A, test 7) was 39% and the “Efficacy in % found” value [5] was 75%. For the same compound, the “Efficacy in % found” value ([6]; 500 ppm a.i.) was 30%, the “Efficacy in % found” value ([6]; 1000 ppm a.i.) was 50% and the “Efficacy in % found” value ([7]; test 1, 12.5 ppm a.i.) was 26%. The “Efficacy in % found” value ([7]; test 1, 25 ppm a.i.) was 72%, the “Efficacy in % found” value ([7]; test 2, 12.5 ppm a.i.) was 14% and the “Efficacy in % found” value [8] was 0%.
